For one experiment, the system named is Influenza A virus. Description: Antiviral activity against influenza A virus by plaque inhibition assay. It counts as functional, organism-based.
Another experiment relates to HCT-116. Description: Cytotoxicity against human HCT116 cells. It counts as functional, cell-based.
The test system of the next experiment is Staphylococcus aureus. Description: Antibacterial activity against methicillin-resistant Staphylococcus aureus. It counts as functional, organism-based.
A further experiment concerns Plasmodium falciparum. In words: Antimalarial activity against Plasmodium falciparum 3D7 MRA-102, MR4/ATCC infected in human erythrocytes assessed as inhibition of parasite proliferation after 72 hrs by SYBR green assay. Format: functional, organism-based.

Among the data in ChEMBL document CHEMBL2417478, “Farnesides A and B, sesquiterpenoid nucleoside ethers from a marine-derived Streptomyces sp., strain CNT-372 from Fiji” (J Nat Prod, 2013) are Activity and IC50 values, retold here.

The source made the active and inactive calls. No cut-off for these calls is given here.

Turning to `CC(C)=CCC/C(C)=C/COC[C@H]1O[C@@H](N2CCC(=O)NC2=O)[C@H](O)[C@@H]1O`, the outcome in the experiment with Influenza A virus was Active.
As for `CC(C)=CCC[C@@](C)(O)[C@@H](O)CC/C(C)=C/COC[C@H]1O[C@@H](N2CCC(=O)NC2=O)[C@H](O)[C@@H]1O`, the result in the experiment on Influenza A virus, with HCT-116 and in the experiment with Staphylococcus aureus was inactive.
For `CC(C)=CCC[C@@]1(C)O[C@@H]1CC/C(C)=C/COC[C@H]1O[C@@H](N2CCC(=O)NC2=O)[C@H](O)[C@@H]1O`, the IC50 – broadly, the concentration that inhibits the measured activity by half – in the experiment on Plasmodium falciparum was found to be 69.3 µM. Besides, the outcome with Influenza A virus, in the experiment on HCT-116 and in the experiment on Staphylococcus aureus was inactive.
